Measured values: PubChem BioAssay (NCI)
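Grown in 96-well plates, cells were treated for 48 hours with each compound at five concentrations. Insufficient inhibition: endpoint recorded as highest concentration tested. GI50 marks 50% less growth. TGI: concentration producing complete growth inhibition.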

Tests used:
Experiment in all cases: NCI tumour cell line growth inhibition, 48 h
786-0 renal = tested on: 786-0 renal
A498 renal = tested on: A498 renal
A549 NSCLC = tested on: A549 NSCLC
ACHN renal = tested on: ACHN renal
BT-549 breast = tested on: BT-549 breast
CAKI-1 renal = tested on: CAKI-1 renal
CCRF-CEM leukemia = tested on: CCRF-CEM leukemia
COLO 205 colon = tested on: COLO 205 colon
DU-145 prostate = tested on: DU-145 prostate
EKVX NSCLC = tested on: EKVX NSCLC
HCC-2998 colon = tested on: HCC-2998 colon
HCT-116 colon = tested on: HCT-116 colon
HCT-15 colon = tested on: HCT-15 colon
HL-60(TB) leukemia = tested on: HL-60(TB) leukemia
HOP-62 NSCLC = tested on: HOP-62 NSCLC
HOP-92 NSCLC = tested on: HOP-92 NSCLC
HS 578T breast = tested on: HS 578T breast
HT29 colon = tested on: HT29 colon
IGROV1 ovarian = tested on: IGROV1 ovarian
K-562 leukemia = tested on: K-562 leukemia
KM12 colon = tested on: KM12 colon
LOX IMVI melanoma = tested on: LOX IMVI melanoma
M14 melanoma = tested on: M14 melanoma
MALME-3M melanoma = tested on: MALME-3M melanoma
MCF7 breast = tested on: MCF7 breast
MDA-MB-231 breast = tested on: MDA-MB-231 breast
MDA-MB-435 = tested on: MDA-MB-435
MOLT-4 leukemia = tested on: MOLT-4 leukemia
NCI-H226 lung = tested on: NCI-H226 lung
NCI-H23 lung = tested on: NCI-H23 lung
NCI-H460 lung = tested on: NCI-H460 lung
NCI-H522 lung = tested on: NCI-H522 lung
NCI/ADR-RES ovarian = tested on: NCI/ADR-RES ovarian
OVCAR-3 ovarian = tested on: OVCAR-3 ovarian
OVCAR-4 ovarian = tested on: OVCAR-4 ovarian
OVCAR-5 ovarian = tested on: OVCAR-5 ovarian
PC-3 prostate = tested on: PC-3 prostate
RPMI-8226 leukemia = tested on: RPMI-8226 leukemia
RXF 393 renal = tested on: RXF 393 renal
SF-268 CNS = tested on: SF-268 CNS
SF-295 CNS = tested on: SF-295 CNS
SF-539 CNS = tested on: SF-539 CNS
SK-MEL-2 melanoma = tested on: SK-MEL-2 melanoma
SK-MEL-28 melanoma = tested on: SK-MEL-28 melanoma
SK-MEL-5 melanoma = tested on: SK-MEL-5 melanoma
SK-OV-3 ovarian = tested on: SK-OV-3 ovarian
SN12C renal = tested on: SN12C renal
SNB-19 CNS = tested on: SNB-19 CNS
SNB-75 CNS = tested on: SNB-75 CNS
SR leukemia = tested on: SR leukemia
SW-620 colon = tested on: SW-620 colon
T-47D breast = tested on: T-47D breast
TK-10 renal = tested on: TK-10 renal
U251 CNS = tested on: U251 CNS
UACC-257 melanoma = tested on: UACC-257 melanoma
UACC-62 melanoma = tested on: UACC-62 melanoma
UO-31 renal = tested on: UO-31 renal

`NC(=O)c1ccc(C2C3=C(CCCC3=O)OC3=C2C(=O)c2ccccc2C3=O)cc1` (centres undefined) gave a GI50 (786-0 renal) of 1040 nM, a TGI (786-0 renal) of 2330 nM and a GI50 (A498 renal) of 1360 nM. It also gave a TGI (A498 renal) of 2690 nM, a GI50 (A549 NSCLC) of 2280 nM and a TGI (A549 NSCLC) of 4660 nM. It also gave a GI50 (ACHN renal) of 1140 nM, a TGI (ACHN renal) of 2410 nM and a GI50 (BT-549 breast) of 642 nM. For the same molecule, the TGI (BT-549 breast) was 2030 nM, the GI50 (CAKI-1 renal) was 1900 nM and the TGI (CAKI-1 renal) was 3670 nM. It also gave a GI50 (CCRF-CEM leukemia) of 350 nM, a TGI (CCRF-CEM leukemia) of 2210 nM and a GI50 (COLO 205 colon) of 351 nM. The TGI (COLO 205 colon) was 1410 nM, the GI50 (DU-145 prostate) was 465 nM and the TGI (DU-145 prostate) was 1590 nM. For the same molecule, the GI50 (EKVX NSCLC) was 687 nM, the TGI (EKVX NSCLC) was 2830 nM and the GI50 (HCC-2998 colon) was 2060 nM. It also gave a TGI (HCC-2998 colon) of 4290 nM, a GI50 (HCT-116 colon) of 260 nM and a TGI (HCT-116 colon) of 760 nM. It also gave a GI50 (HCT-15 colon) of 1400 nM, a TGI (HCT-15 colon) of 3370 nM and a GI50 (HL-60(TB) leukemia) of 239 nM. It also gave a TGI (HL-60(TB) leukemia) of 538 nM, a GI50 (HOP-62 NSCLC) of 1350 nM and a TGI (HOP-62 NSCLC) of 2720 nM. The GI50 (HOP-92 NSCLC) was 855 nM, the TGI (HOP-92 NSCLC) was 2910 nM and the GI50 (HS 578T breast) was 1130 nM. The TGI (HS 578T breast) was 5490 nM, the GI50 (HT29 colon) was 1770 nM and the TGI (HT29 colon) was 5580 nM. It also gave a GI50 (IGROV1 ovarian) of 641 nM, a TGI (IGROV1 ovarian) of 2120 nM and a GI50 (K-562 leukemia) of 391 nM. It also gave a TGI (K-562 leukemia) of 1960 nM, a GI50 (KM12 colon) of 1340 nM and a TGI (KM12 colon) of 4520 nM. The GI50 (LOX IMVI melanoma) was 181 nM, the TGI (LOX IMVI melanoma) was 1060 nM and the GI50 (M14 melanoma) was 609 nM. It also gave a TGI (M14 melanoma) of 2030 nM, a GI50 (MALME-3M melanoma) of 332 nM and a TGI (MALME-3M melanoma) of 986 nM. It also gave a GI50 (MCF7 breast) of 233 nM, a TGI (MCF7 breast) of 824 nM and a GI50 (MDA-MB-231 breast) of 323 nM. It also gave a TGI (MDA-MB-231 breast) of 1540 nM, a GI50 (MDA-MB-435) of 179 nM and a TGI (MDA-MB-435) of 339 nM. For the same molecule, the GI50 (MOLT-4 leukemia) was 361 nM, the TGI (MOLT-4 leukemia) was 1400 nM and the GI50 (NCI-H226 lung) was 1890 nM. The TGI (NCI-H226 lung) was 3960 nM, the GI50 (NCI-H23 lung) was 202 nM and the TGI (NCI-H23 lung) was 1140 nM. It also gave a GI50 (NCI-H460 lung) of 458 nM, a TGI (NCI-H460 lung) of 2050 nM and a GI50 (NCI-H522 lung) of 307 nM. For the same molecule, the TGI (NCI-H522 lung) was 757 nM, the GI50 (NCI/ADR-RES ovarian) was 2940 nM and the TGI (NCI/ADR-RES ovarian) was 22500 nM. The GI50 (OVCAR-3 ovarian) was 276 nM, the TGI (OVCAR-3 ovarian) was 852 nM and the GI50 (OVCAR-4 ovarian) was 228 nM. For the same molecule, the TGI (OVCAR-4 ovarian) was 950 nM, the GI50 (OVCAR-5 ovarian) was 1910 nM and the TGI (OVCAR-5 ovarian) was 3920 nM. It also gave a GI50 (PC-3 prostate) of 285 nM, a TGI (PC-3 prostate) of 1860 nM and a GI50 (RPMI-8226 leukemia) of 521 nM. For the same molecule, the TGI (RPMI-8226 leukemia) was 2630 nM, the GI50 (RXF 393 renal) was 1430 nM and the TGI (RXF 393 renal) was 2870 nM. It also gave a GI50 (SF-268 CNS) of 466 nM, a TGI (SF-268 CNS) of 1930 nM and a GI50 (SF-295 CNS) of 1530 nM. It also gave a TGI (SF-295 CNS) of 3180 nM, a GI50 (SF-539 CNS) of 307 nM and a TGI (SF-539 CNS) of 1030 nM. It also gave a GI50 (SK-MEL-2 melanoma) of 576 nM, a TGI (SK-MEL-2 melanoma) of 2060 nM and a GI50 (SK-MEL-28 melanoma) of 1330 nM. It also gave a TGI (SK-MEL-28 melanoma) of 2870 nM, a GI50 (SK-MEL-5 melanoma) of 493 nM and a TGI (SK-MEL-5 melanoma) of 1730 nM. It also gave a GI50 (SK-OV-3 ovarian) of 2120 nM, a TGI (SK-OV-3 ovarian) of 4110 nM and a GI50 (SN12C renal) of 320 nM. For the same molecule, the TGI (SN12C renal) was 1170 nM, the GI50 (SNB-19 CNS) was 1380 nM and the TGI (SNB-19 CNS) was 2870 nM. For the same molecule, the GI50 (SNB-75 CNS) was 277 nM, the TGI (SNB-75 CNS) was 1220 nM and the GI50 (SR leukemia) was 771 nM. The TGI (SR leukemia) was 5730 nM, the GI50 (SW-620 colon) was 383 nM and the TGI (SW-620 colon) was 1720 nM. The GI50 (T-47D breast) was 272 nM, the TGI (T-47D breast) was 968 nM and the GI50 (TK-10 renal) was 1820 nM. The TGI (TK-10 renal) was 3220 nM, the GI50 (U251 CNS) was 358 nM and the TGI (U251 CNS) was 1220 nM. The GI50 (UACC-257 melanoma) was 232 nM, the TGI (UACC-257 melanoma) was 1260 nM and the GI50 (UACC-62 melanoma) was 217 nM. For the same molecule, the TGI (UACC-62 melanoma) was 520 nM, the GI50 (UO-31 renal) was 1540 nM and the TGI (UO-31 renal) was 2910 nM.
